Several values for one entry are separate records, joined by “and”; a condition that tells them apart may be missing. Identical values can stand only once.
Details: Liquid; for self diffusion coefficient: NMR spin-echo technique; for viscosity: Falling or rolling sphere viscometry; for mass density: Vibrating tube method

OCC(F)(F)F [2,2,2-trifluoroethanol]
Details | mass density | self diffusion coefficient [m2/s] | viscosity
253.24 K, 100 kPa | – | 1.33e-10 | –
258.45 K, 100 kPa | – | 1.68e-10 | –
258.49 K, 100 kPa | – | 1.68e-10 | –
263.15 K, 100 kPa | – | – | 5.502 mPa·s and 5.485 mPa·s
263.15 K, 9900 kPa | – | – | 6.125 mPa·s
263.15 K, 10000 kPa | – | – | 6.134 mPa·s
263.15 K, 24500 kPa | – | – | 7.159 mPa·s
263.15 K, 24600 kPa | – | – | 7.168 mPa·s
263.15 K, 50500 kPa | – | – | 9.212 mPa·s
263.15 K, 50600 kPa | – | – | 9.203 mPa·s
263.15 K, 75500 kPa | – | – | 11.52 mPa·s and 11.51 mPa·s
263.15 K, 100200 kPa | – | – | 14.28 mPa·s
263.15 K, 101000 kPa | – | – | 14.38 mPa·s
263.15 K, 131600 kPa | – | – | 18.4 mPa·s
263.15 K, 132200 kPa | – | – | 18.53 mPa·s
263.37 K, 100 kPa | – | 2.05e-10 | –
263.39 K, 100 kPa | – | 2.06e-10 | –
268.15 K, 100 kPa | – | – | 4.517 mPa·s and 4.513 mPa·s
272.82 K, 79000 kPa | – | 1.66e-10 | –
272.84 K, 25700 kPa | – | 2.48e-10 | –
272.86 K, 100 kPa | – | 3.06e-10 | –
272.87 K, 100 kPa | – | 3.06e-10 | –
272.9 K, 200500 kPa | – | 7.6e-11 | –
272.91 K, 299000 kPa | – | 4.23e-11 | –
272.93 K, 249000 kPa | – | 5.7e-11 | –
272.99 K, 150000 kPa | – | 1.04e-10 | –
273.09 K, 98000 kPa | – | 1.46e-10 | –
273.15 K, 100 kPa | 1424.26 kg/m3 | – | 3.798 mPa·s [middle of 5 runs]
273.15 K, 10400 kPa | – | – | 4.226 mPa·s
273.15 K, 10500 kPa | – | – | 4.224 mPa·s
273.15 K, 25500 kPa | – | – | 4.909 mPa·s and 4.905 mPa·s
273.15 K, 50500 kPa | – | – | 6.179 mPa·s and 6.166 mPa·s
273.15 K, 75000 kPa | – | – | 7.57 mPa·s
273.15 K, 75500 kPa | – | – | 7.582 mPa·s
273.15 K, 99800 kPa | – | – | 9.373 mPa·s
273.15 K, 100300 kPa | – | – | 9.375 mPa·s
273.15 K, 125600 kPa | – | – | 11.37 mPa·s and 11.45 mPa·s
273.15 K, 125700 kPa | – | – | 11.39 mPa·s
273.15 K, 150300 kPa | – | – | 13.73 mPa·s
273.15 K, 150700 kPa | – | – | 13.79 mPa·s
273.15 K, 176200 kPa | – | – | 16.53 mPa·s
273.15 K, 176400 kPa | – | – | 16.61 mPa·s
273.15 K, 201100 kPa | – | – | 19.6 mPa·s and 19.51 mPa·s
273.15 K, 233500 kPa | – | – | 24.25 mPa·s
273.15 K, 233700 kPa | – | – | 24.29 mPa·s
273.25 K, 100 kPa | – | 3.07e-10 | –
273.25 K, 50000 kPa | – | 2.04e-10 | –
273.8 K, 100 kPa | – | 3.3e-10 | –
278.15 K, 100 kPa | 1416.08 kg/m3 | – | 3.311 mPa·s and 3.305 mPa·s
278.59 K, 100 kPa | – | 3.94e-10 | –
278.63 K, 100 kPa | – | 3.87e-10 | –
283.15 K, 100 kPa | 1407.84 kg/m3 and 1407.85 kg/m3 | – | 2.746 mPa·s and 2.749 mPa·s
288.15 K, 100 kPa | 1399.56 kg/m3 | – | 2.363 mPa·s and 2.368 mPa·s
288.53 K, 100 kPa | – | 5.41e-10 | –
288.56 K, 100 kPa | – | 5.3e-10 | –
293.15 K, 100 kPa | 1391.18 kg/m3 and 1391.19 kg/m3 | – | 2.077 mPa·s [middle of 4 runs]
298.15 K, 100 kPa | 1382.73 kg/m3 and 1382.71 kg/m3 | – | 1.781 mPa·s [middle of 7 runs]
298.15 K, 10200 kPa | – | – | 1.98 mPa·s and 1.981 mPa·s
298.15 K, 25400 kPa | – | – | 2.267 mPa·s and 2.264 mPa·s
298.15 K, 49900 kPa | – | – | 2.755 mPa·s
298.15 K, 50200 kPa | – | – | 2.773 mPa·s
298.15 K, 74900 kPa | – | – | 3.317 mPa·s
298.15 K, 75100 kPa | – | – | 3.314 mPa·s
298.15 K, 100400 kPa | – | – | 3.929 mPa·s
298.15 K, 100600 kPa | – | – | 3.938 mPa·s
298.15 K, 125200 kPa | – | – | 4.612 mPa·s
298.15 K, 125400 kPa | – | – | 4.61 mPa·s
298.15 K, 150100 kPa | – | – | 5.347 mPa·s
298.15 K, 175000 kPa | – | – | 6.198 mPa·s
298.15 K, 175200 kPa | – | – | 6.197 mPa·s
298.15 K, 197500 kPa | – | – | 6.965 mPa·s
298.15 K, 197800 kPa | – | – | 6.993 mPa·s
298.15 K, 200700 kPa | – | – | 7.21 mPa·s
298.15 K, 201700 kPa | – | – | 7.297 mPa·s
298.15 K, 224400 kPa | – | – | 8.254 mPa·s
298.15 K, 226100 kPa | – | – | 8.33 mPa·s
298.15 K, 256900 kPa | – | – | 9.931 mPa·s
298.15 K, 258400 kPa | – | – | 10.03 mPa·s
298.15 K, 276700 kPa | – | – | 10.98 mPa·s
298.15 K, 277800 kPa | – | – | 11.04 mPa·s
298.15 K, 300600 kPa | – | – | 12.3 mPa·s
298.15 K, 301600 kPa | – | – | 12.43 mPa·s
298.15 K, 325400 kPa | – | – | 13.99 mPa·s
298.15 K, 326500 kPa | – | – | 14.06 mPa·s
298.15 K, 348800 kPa | – | – | 15.77 mPa·s
298.15 K, 351100 kPa | – | – | 15.95 mPa·s
298.26 K, 100 kPa | – | 6.91e-10 | –
298.32 K, 100 kPa | – | 6.96e-10 | –
298.34 K, 100 kPa | – | 7.21e-10 | –
298.35 K, 100 kPa | – | 7.06e-10 | –
298.36 K, 100 kPa | – | 6.95e-10 | –
298.55 K, 100 kPa | – | 6.99e-10 | –
299.89 K, 25000 kPa | – | 6.08e-10 | –
299.91 K, 50000 kPa | – | 5.11e-10 | –
299.91 K, 72500 kPa | – | 4.38e-10 | –
299.92 K, 100 kPa | – | 7.35e-10 | –
299.92 K, 300000 kPa | – | 1.32e-10 | –
299.93 K, 98000 kPa | – | 3.77e-10 | –
299.93 K, 199000 kPa | – | 2.14e-10 | –
299.94 K, 149000 kPa | – | 2.87e-10 | –
299.94 K, 350000 kPa | – | 1.09e-10 | –
299.98 K, 250000 kPa | – | 1.72e-10 | –
300.4 K, 100 kPa | – | 7.52e-10 | –
303.15 K, 100 kPa | – | – | 1.574 mPa·s and 1.565 mPa·s
